Holding throughout (assay type): biochemical
Experiment [1] concerns the target T1, MAGL (Mus musculus, UniProt O35678).
T1 construct: Proteomes (mouse brain membrane fraction or cell lysates); from tissue; host or cells: mouse brain membrane fraction (or unspecified cell lysates)
T1 sequence (O35678 1-303): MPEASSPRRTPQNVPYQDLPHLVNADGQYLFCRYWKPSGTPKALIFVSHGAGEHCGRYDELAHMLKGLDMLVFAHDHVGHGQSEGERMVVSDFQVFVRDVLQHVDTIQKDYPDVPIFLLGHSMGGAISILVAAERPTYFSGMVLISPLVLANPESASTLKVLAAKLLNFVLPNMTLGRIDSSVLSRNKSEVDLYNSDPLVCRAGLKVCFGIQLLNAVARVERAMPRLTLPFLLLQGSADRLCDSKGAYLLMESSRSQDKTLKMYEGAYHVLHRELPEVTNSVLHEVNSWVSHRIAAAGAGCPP
Briefly: In vitro competitive activity-based protein profiling (mouse), MAGL. Conditions: for inhibition at 1 µM: mouse proteome, in vitro, read-out: % Inhibition at 1 μM MAGL; for IC50: mouse brain membrane fraction or cell lysates, 30 min preincubation at 37° C, FP-Rh probe. The protocol: (§1) In Vitro Competitive Activity-Based Protein Profiling (Mouse).
(§2) Proteomes (mouse brain membrane fraction or cell lysates) (50 μL, 1.0 mg/mL total protein concentration) were preincubated with varying concentrations of inhibitors at 37° C. After 30 min, FP-Rh (1.0 μL, 50 μM in DMSO) was added and the mixture was incubated for another 30 min at 37° C. Reactions were quenched with SDS loading buffer (50 μL-4×) and run on SDS-PAGE.

The target in experiment [2] is T2, ABHD6 (Mus musculus, UniProt Q8R2Y0).
T2 construct: Proteomes (mouse brain membrane fraction or cell lysates); from tissue; host or cells: mouse brain membrane fraction (or unspecified cell lysates)
T2 sequence (Q8R2Y0 1-336): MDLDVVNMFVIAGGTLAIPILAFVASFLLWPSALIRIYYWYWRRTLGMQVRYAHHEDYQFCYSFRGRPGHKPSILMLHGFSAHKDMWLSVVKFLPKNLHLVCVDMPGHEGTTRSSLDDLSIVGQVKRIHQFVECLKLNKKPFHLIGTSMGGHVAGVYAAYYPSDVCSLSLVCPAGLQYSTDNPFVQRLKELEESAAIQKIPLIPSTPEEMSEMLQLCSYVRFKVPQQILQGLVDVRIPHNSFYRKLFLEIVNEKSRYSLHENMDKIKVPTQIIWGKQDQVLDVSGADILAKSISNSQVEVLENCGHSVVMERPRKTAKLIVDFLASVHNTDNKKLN
As to the kind of experiment: In vitro competitive activity-based protein profiling (mouse), ABHD6. To be noted: for inhibition at 1 µM: mouse proteome, in vitro, read-out: % Inhibition at 1 μM ABHD6; for IC50: mouse brain membrane fraction or cell lysates, 30 min preincubation at 37° C, FP-Rh probe. How it is done: as §1, §2

Experiment [3] addresses T3, FAAH (Mus musculus, UniProt O08914).
T3 construct: Proteomes (mouse brain membrane fraction or cell lysates); from tissue; host or cells: mouse brain membrane fraction (or unspecified cell lysates)
T3 sequence (O08914 1-579): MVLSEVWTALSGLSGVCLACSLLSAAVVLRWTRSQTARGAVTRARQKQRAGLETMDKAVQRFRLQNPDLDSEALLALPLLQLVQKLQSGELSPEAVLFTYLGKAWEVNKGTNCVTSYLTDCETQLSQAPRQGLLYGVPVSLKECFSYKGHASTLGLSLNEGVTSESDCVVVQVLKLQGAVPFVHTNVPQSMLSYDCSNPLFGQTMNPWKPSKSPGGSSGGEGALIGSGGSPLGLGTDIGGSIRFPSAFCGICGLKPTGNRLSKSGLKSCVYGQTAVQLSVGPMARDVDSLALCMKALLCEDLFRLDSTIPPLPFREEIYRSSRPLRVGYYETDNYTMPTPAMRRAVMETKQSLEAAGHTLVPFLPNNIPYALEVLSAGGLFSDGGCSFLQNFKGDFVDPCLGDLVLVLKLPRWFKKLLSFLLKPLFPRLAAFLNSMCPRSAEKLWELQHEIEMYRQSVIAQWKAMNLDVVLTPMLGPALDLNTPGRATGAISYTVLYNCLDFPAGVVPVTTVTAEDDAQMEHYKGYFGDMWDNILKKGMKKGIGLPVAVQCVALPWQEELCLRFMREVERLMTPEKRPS
Briefly: In vitro competitive activity-based protein profiling (mouse), FAAH. Conditions: for inhibition at 1 µM: mouse proteome, in vitro; for IC50: mouse brain membrane fraction or cell lysates, 30 min preincubation at 37° C, FP-Rh probe. In short, it runs like this:
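Mouse brain membrane fraction or cell lysates (1.0 mg/mL protein) preincubated with inhibitors 30 min at 37° C, then FP-Rh probe 30 min at 37° C. SDS-PAGE fluorescence band intensity gave FAAH activity.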

Broadly, the inhibition is the drop in the measured response relative to a control, in per cent. As a reminder, the IC50 is the midpoint of a concentration-inhibition curve. Low values mean greater potency, high ones weaker potency.

Structures are written as SMILES.

`O=C(OC(C(F)(F)F)C(F)(F)F)N1CCN(Cc2ccc(Cl)cc2N2CC3CN(C4CC4)CC3C2)CC1` (stereo not drawn) [Example 64, 1,1,1,3,3,3-hexafluoropropan-2-yl 4-(4-chloro-2-(5-cyclopropylhexahydropyrrolo[3,4-c]pyrrol-2(1H)-yl)benzyl)piperazine-1-carboxylate]: the inhibition at 1 µM was over 75% in experiment [1], under 25% in experiment [2] and under 25% in experiment [3]. For the same molecule, the results for the half-maximal inhibitory concentration (IC50) in experiment [1], in experiment [2] and in experiment [3] were 100 to 1000 nM, over 1000 nM and over 1000 nM, respectively.

Regarding `O=C(OC(C(F)(F)F)C(F)(F)F)N1CCN(Cc2ccc(Cl)cc2N2CCC3(CCCN3C3CC3)CC2)CC1` [Example 66, 1,1,1,3,3,3-hexafluoropropan-2-yl 4-(4-chloro-2-(1-cyclopropyl-1,8-diazaspiro[4.5]decan-8-yl)benzyl)piperazine-1-carboxylate], the values for the inhibition at 1 µM in experiment [1], in experiment [2] and in experiment [3] were over 75%, 25 to 75% and under 25%, respectively. In addition, the values for the IC50 in experiment [1], in experiment [2] and in experiment [3] were 100 to 1000 nM, over 1000 nM and over 1000 nM, respectively.

`O=C(OC(C(F)(F)F)C(F)(F)F)N1CCN(Cc2ccc(C(F)(F)F)cc2N2CCC3(CCCN3C3CC3)CC2)CC1` [Example 67, 1,1,1,3,3,3-hexafluoropropan-2-yl 4-(2-(1-cyclopropyl-1,8-diazaspiro[4.5]decan-8-yl)-4-(trifluoromethyl)benzyl)piperazine-1-carboxylate]: the figures for the inhibition at 1 µM in experiment [1], in experiment [2] and in experiment [3] were over 75%, under 25% and under 25%, respectively. Further, the values for the IC50 in experiment [1], in experiment [2] and in experiment [3] were 100 to 1000 nM, over 1000 nM and over 1000 nM, respectively.

For the molecule `O=C(OC(C(F)(F)F)C(F)(F)F)N1CCN(Cc2ccc(C(F)(F)F)cc2N2CCC(C(=O)N3CCCC3)CC2)CC1` [Example 68, 1,1,1,3,3,3-hexafluoropropan-2-yl 4-(2-(4-(pyrrolidine-1-carbonyl)piperidin-1-yl)-4-(trifluoromethyl)benzyl)piperazine-1-carboxylate], the inhibition at 1 µM in experiment [1] is over 75%; in experiment [2], under 25%; in experiment [3] it was under 25%. The values for the IC50 in experiment [1], in experiment [2] and in experiment [3] were 100 to 1000 nM, over 1000 nM and over 1000 nM, respectively.

`CCOC(=O)C1CCCN1c1cc(C(F)(F)F)ccc1CN1CCN(C(=O)OC(C(F)(F)F)C(F)(F)F)CC1` (stereo not drawn) [Example 70, 1,1,1,3,3,3-hexafluoropropan-2-yl 4-(2-(2-(ethoxycarbonyl)pyrrolidin-1-yl)-4-(trifluoromethyl)benzyl)piperazine-1-carboxylate]: the inhibition at 1 µM is over 75% in experiment [1], over 75% in experiment [2] and under 25% in experiment [3]. Moreover, the IC50 in experiment [1] was under 100 nM; in experiment [2], 100 to 1000 nM; in experiment [3] it was over 1000 nM.

For `O=C(O)C1CCN(c2cc(C(F)(F)F)ccc2CN2CCN(C(=O)OC(C(F)(F)F)C(F)(F)F)CC2)C1` (stereo not drawn) [Example 72, 1-(2-((4-(((1,1,1,3,3,3-hexafluoropropan-2-yl)oxy)carbonyl)piperazin-1-yl)methyl)-5-(trifluoromethyl)phenyl)pyrrolidine-3-carboxylic acid], the inhibition at 1 µM in experiment [1] is over 75%; in experiment [2], over 75%; in experiment [3], under 25%. Besides, the IC50 was under 100 nM in experiment [1], 100 to 1000 nM in experiment [2] and over 1000 nM in experiment [3].

Turning to `O=C(OC(C(F)(F)F)C(F)(F)F)N1CCN(Cc2ccc(C(F)(F)F)cc2N2CCC(CO)C2)CC1` (stereo not drawn) [Example 73, 1,1,1,3,3,3-hexafluoropropan-2-yl 4-(2-(3-(hydroxymethyl)pyrrolidin-1-yl)-4-(trifluoromethyl)benzyl)piperazine-1-carboxylate], the inhibition at 1 µM in experiment [1] was over 75%; in experiment [2], over 75%; in experiment [3], under 25%. Moreover, the results for the IC50 in experiment [1], in experiment [2] and in experiment [3] were under 100 nM, 100 to 1000 nM and over 1000 nM, respectively.

For the molecule `O=C(O)C(=O)c1cc(C(F)(F)F)ccc1CN1CCN(C(=O)OC(C(F)(F)F)C(F)(F)F)CC1` [Example 76, 2-(2-((4-(((1,1,1,3,3,3-hexafluoropropan-2-yl)oxy)carbonyl)piperazin-1-yl)methyl)-5-(trifluoromethyl)phenyl)-2-oxoacetic acid], the figures for the inhibition at 1 µM in experiment [1], in experiment [2] and in experiment [3] were over 75%, over 75% and under 25%, respectively. The values for the IC50 in experiment [1], in experiment [2] and in experiment [3] were under 100 nM, over 1000 nM and over 1000 nM, respectively.

As to `O=C(O)[C@@H]1CCCN1c1cc(CN2CCN(C(=O)OC(C(F)(F)F)C(F)(F)F)CC2)ccc1C(F)(F)F` [Example 77, (5-((4-(((1,1,1,3,3,3-hexafluoropropan-2-yl)oxy)carbonyl)piperazin-1-yl)methyl)-2-(trifluoromethyl)phenyl)proline], the figures for the inhibition at 1 µM in experiment [1], in experiment [2] and in experiment [3] were over 75%, over 75% and under 25%, respectively. Moreover, the figures for the IC50 in experiment [1], in experiment [2] and in experiment [3] were 100 to 1000 nM, over 1000 nM and over 1000 nM, respectively.

On to `CCOC(=O)C1CCCN1c1cc(CN2CCN(C(=O)OC(C(F)(F)F)C(F)(F)F)CC2)ccc1C(F)(F)F` (stereo not drawn) [Example 78, 1,1,1,3,3,3-hexafluoropropan-2-yl 4-(3-(2-(ethoxycarbonyl)pyrrolidin-1-yl)-4-(trifluoromethyl)benzyl)piperazine-1-carboxylate], for which the values for the inhibition at 1 µM in experiment [1], in experiment [2] and in experiment [3] were over 75%, over 75% and under 25%, respectively. The 50% inhibitory concentration (IC50) in experiment [1] is under 100 nM; in experiment [2], 100 to 1000 nM; in experiment [3] it was over 1000 nM.

For the molecule `O=C(OC(C(F)(F)F)C(F)(F)F)N1CCN(Cc2ccc(C(F)(F)F)c(N3CCCC3CO)c2)CC1` (stereo not drawn) [Example 79, 1,1,1,3,3,3-hexafluoropropan-2-yl 4-(3-(2-(hydroxymethyl)pyrrolidin-1-yl)-4-(trifluoromethyl)benzyl)piperazine-1-carboxylate], the inhibition at 1 µM in experiment [1] is over 75%; in experiment [2], over 75%; in experiment [3] it was under 25%. In addition, the concentration for half-maximal inhibition (IC50) in experiment [1] is under 100 nM; in experiment [2], under 100 nM; in experiment [3], over 1000 nM.

For the molecule `O=C(O)C1CCN(c2cc(CN3CCN(C(=O)OC(C(F)(F)F)C(F)(F)F)CC3)ccc2C(F)(F)F)C1` (stereo not drawn) [Example 80, 1-(5-((4-(((1,1,1,3,3,3-hexafluoropropan-2-yl)oxy)carbonyl)piperazin-1-yl)methyl)-2-(trifluoromethyl)phenyl)pyrrolidine-3-carboxylic acid], the inhibition at 1 µM is over 75% in experiment [1], 25 to 75% in experiment [2] and under 25% in experiment [3]. Further, the values for the IC50 in experiment [1], in experiment [2] and in experiment [3] were under 100 nM, 100 to 1000 nM and over 1000 nM, respectively.

Take `O=C(OC(C(F)(F)F)C(F)(F)F)N1CCN(Cc2ccc(C(F)(F)F)c(N3CCC(CO)C3)c2)CC1` (stereo not drawn) [Example 81, 1,1,1,3,3,3-hexafluoropropan-2-yl 4-(3-(3-(hydroxymethyl)pyrrolidin-1-yl)-4-(trifluoromethyl)benzyl)piperazine-1-carboxylate]: the inhibition at 1 µM in experiment [1] is over 75%; in experiment [2] it was over 75%; in experiment [3] it was under 25%. The IC50 in experiment [1] was 100 to 1000 nM; in experiment [2], 100 to 1000 nM; in experiment [3], over 1000 nM.

These data come from patent publication US9771341B2, “Piperazine carbamates and methods of making and using same” (Abide Therapeutics, Inc., priority 2015, dated 2017).
